Assay results published in patent US12281299B2, “Control of nitrogen fixation in rhizobia that associate with cereals” (Massachusetts Institute of Technology, priority 2019, dated 2025).

Each compound was assayed on P. protegens Pf-5 (assay: Genetic part characterization for P. protegens (promoters, RBSs, terminators, inducible systems; fluorescence reporter, flow cytometry)). Settings: P. protegens Pf-5, pRO1600 plasmid.
Format: cell-based, Pseudomonas protegens
Text: Construction and characterization genetic parts for P. protegens. Genetic part libraries were built on a pRO1600-ori plasmid pMR-2 using Gibson assembly (New England Biolabs, Cat # E2611). The fluorescence proteins, GFPmut3b and mRFP1 were used as reporters. The Anderson promoter library on the BioBricks Registry were utilized for the characterization of constitutive promoters (FIGS. 11A-11C). The following combinations of cognate regulators and inducible promoters were characterized. IPTG inducible LacI-Ptac, DAPG inducible PhlF-PPhl, aTc inducible TetR-PTet, 3OC6HSL inducible LuxR-PLux, arabinose inducible AraC-PBAD, cuminic acid inducible CymR-PCym, and naringenin inducible FdeR-PFde were optimized (FIGS. 15A-15C). […] RBS library for GFP was designed using the RBS library calculator at the highest-resolution mode, and the 3′ end of the 16S rRNA sequences were adjusted according to the species (3′-ACCTCCTTA-5′ for P. protegens Pf-5). Terminators for T7 RNAP were characterized by placing a terminator between two fluorescence reporters expressed from a single T7 wild-type promoter located upstream of the first fluorescence protein GFP. The expression of the two fluorescence proteins is enabled by an IPTG-inducible T7 RNAP expression system of the controller strain MR7 (FIGS. 13A-13B). All genetic parts for P. protegens Pf-5 were characterized as follows.
For `O=C1C[C@@H](c2ccc(O)cc2)Oc2cc(O)cc(O)c21` [naringenin, Naringenin, reference compound], the “function of inducible system” value was “functional”. For `CCCC(=O)CC(=O)N[C@H]1CCOC1=O` [3OC6HSL, N-(3-Oxohexanoyl)-L-homoserine lactone, reference compound], the “function of inducible system” value was “functional”.

Same assay, conditions: synthetic RBS strength in P. protegens Pf-5; plasmid pMR-65, arabinose-inducible system, 7 μM arabinose induction
In the case of “RBSp10 (DNA GAATTCTACACTAACGGACAGGAGGGTCGGATG; expressed or natural sequence)”, the “Strength (GFP, au)” value is reported as 11090 au. For “RBSp15 (DNA GAATTCTCAACTAACGGACAGGAGGGTCCGATG; expressed or natural sequence)”, the “Strength (GFP, au)” value was 7596 au. With “RBSp14 (DNA GAATTCTCAGCTAACGGACAGGAGGGTCCGATG; expressed or natural sequence)” the “Strength (GFP, au)” value was 8766 au. In the case of “RBSp18 (DNA GAATTCTCAGCTAACGGACAGGAGGGTCGGATG; expressed or natural sequence)”, the “Strength (GFP, au)” value is reported as 5915 au. In the case of “RBSp25 (DNA GAATTCTACACTAACGGACAGCAGGGTCGGATG; expressed or natural sequence)”, the “Strength (GFP, au)” value is reported as 3542 au. In the case of “R135132 (DNA CTAGCGAAGGTCCAACGTTTTTCTAAGCAAGGAGGTCATATG; chemistry not fully specified)”, the “Strength (GFP, au)” value is reported as 21590 au. “RBSp20 (DNA GAATTCTCAGCTCACGGACAGGAGGGTCGGATG; expressed or natural sequence)” was tested, and the “Strength (GFP, au)” value was 4426 au. With “RBSp8 (DNA GAATTCTAAGCTAACGGACAGGAGGGTCCGATG; expressed or natural sequence)” the “Strength (GFP, au)” value was 12790 au. For “RBSp7 (DNA GAATTCTAAACTAACGGACAGGAGGGTCCGATG; expressed or natural sequence)”, the “Strength (GFP, au)” value was 13390 au. “RBSp22 (DNA GAATTCTACACTCACGGACAGGAGGGTCGGATG; expressed or natural sequence)” was tested, and the “Strength (GFP, au)” value was 3977 au. In the case of “RBSp31 (DNA GAATTCTCCGCTCACGGACAGGAGGGTCCGATG; expressed or natural sequence)”, the “Strength (GFP, au)” value is reported as 23.3 au. “RBSp27 (DNA GAATTCTCAGCTAACGGACAGCAGGGTCGGATG; expressed or natural sequence)” was tested, and the “Strength (GFP, au)” value was 1265 au. With “R135135 (DNA CTAGCGAAGCTCCAACGTTTTTCTAAGCAAGGAGGTCATATG; chemistry not fully specified)” the “Strength (GFP, au)” value was 17990 au. In the case of “RBSp24 (DNA GAATTCTCAACTCACGGACAGGAGGGTCGGATG; expressed or natural sequence)”, the “Strength (GFP, au)” value is reported as 3661 au. With “RBSp4 (DNA CTAGCGCAGGTCCAACGTTTTTCTAAGCCAGGAGGTCATATG; expressed or natural sequence)” the “Strength (GFP, au)” value was 19490 au. With “RBSp16 (DNA GAATTCTACGCTAACGGACAGGAGGGTCGGATG; expressed or natural sequence)” the “Strength (GFP, au)” value was 6055 au. With “RBSp13 (DNA GAATTCTAAGCTAACGGACAGGAGGGTCGGATG; expressed or natural sequence)” the “Strength (GFP, au)” value was 8918 au. “RBSp30 (DNA GAATTCTACGCTCACGGACAGCAGGGTCGGATG; expressed or natural sequence)” was tested, and the “Strength (GFP, au)” value was 221 au. In the case of “RBSp11 (DNA GAATTCTACGCTAACGGACAGGAGGGTCCGATG; expressed or natural sequence)”, the “Strength (GFP, au)” value is reported as 10390 au. In the case of “RBSp23 (DNA GAATTCTAAGCTCACGGACAGGAGGGTCGGATG; expressed or natural sequence)”, the “Strength (GFP, au)” value is reported as 3829 au. In the case of “RBSp6 (DNA GAATTCTACACTAACGGACAGGAGGGTCCGATG; expressed or natural sequence)”, the “Strength (GFP, au)” value is reported as 14490 au. With “RBSp28 (DNA CTAGCGCAGGTCCAACCTTTTTCTAAGCAACTAGGTCATATG; expressed or natural sequence)” the “Strength (GFP, au)” value was 389 au. With “RBSp1 (DNA CTAGCGCAGGTCCAACGTTTTTCTAAGCAAGGAGGTCATATG; expressed or natural sequence)” the “Strength (GFP, au)” value was 25090 au. “RBSp12 (DNA GAATTCTCAACTAACGGACAGGAGGGTCCGATG; expressed or natural sequence)” was tested, and the “Strength (GFP, au)” value was 9590 au.
